The values that follow come from publication PMC9316317, “Reducing the Kidney Uptake of High Contrast CXCR4 PET Imaging Agents via Linker Modifications” (Pharmaceutics, 2022).

For orientation: pKa means the negative logarithm of the acid dissociation constant. As a reminder, the tissue uptake is the percentage of the injected dose found per gram of tissue.

Like-named read-outs stand apart in the source and are kept apart here. Where a SMILES comes first, the peptide text is derived from it. Bridges are numbered along the chain shown (N, C = ends). Side-chain parts run from the residue outwards. [ ]: non-standard residue; d: D form. The star is where a group is joined. DOTA = O=C(O)CN1CCN(CC(=O)O)CCN(CC(=O)*)CCN(CC(=O)O)CC1; 2Nal = N[C@@H](Cc1ccc2ccccc2c1)C(=O)O; Lys(iPr) = CC(C)NCCCC[C@H](N)C(=O)O Some results are limits rather than exact numbers.

The conditions of data set [1]: quoted in discussion, approximate; ammonium salt of N-methylpiperidine; carboxylate in aspartate; no reference given; cited from earlier work. The text has this: The placement of three consecutive charged amino acids may increase the pKa of the neighboring carboxylate due to unfavorable electrostatic repulsions. The sulfonate has a lower pKa than a carboxylate (approximately −1.7 versus 1.9 in aspartate), and as such, may be able to better retain its negative charge, thereby increasing the excretion of the radiotracer from the kidneys. However, there was no difference in LogD7.4 values between [^68Ga]Ga-BL02 and [^68Ga]Ga-BL31. The increased capacity to hold a negative cha ...

Data set [2] relates to CXCR4-expressing Daudi xenograft mice. The settings on record: mouse, in vivo, iv.
Experimental: (§1) Male NOD.Cg-Rag1tm1Mom Il2rgtm1Wjl/SzJ (NRG) mice were obtained from an in-house breeding colony at the Animal Resource Centre of the BC Cancer Research Centre, Vancouver, Canada. Mice (6–10 weeks old, 25–30 g weight) were subcutaneously inoculated with 5 × 10^6 Daudi cells (100 μL; 1:1 ratio of PBS/Matrigel) on the left flank.
(§2) Additional groups of mice received 7.5 µg (0.25–0.3 mg/kg) LY2510924 as a blocking control i.p. 15 min before radiotracer injection, and euthanized 1 h p.i. Tissues were harvested, washed in PBS, blotted dry, and weighed, and radioactivity was counted on a Hidex AMG Automatic Gamma Counter. The counts were decay corrected, converted to absolute units using a calibration curve, and expressed as percent injected dose per gram of tissue (%ID/g).
A further data set is described as follows: in vivo. The note with it: male, NOD.Cg-Rag1tm1Mom Il2rgtm1Wjl/SzJ (NRG), mouse, iv, total radioactivity.
The test system of the next data set is mCXCR4. Also on record: method as in PMID 29212254. The settings on record: cited from earlier work.

Experimental for in vivo: as §1, §2

Consider `CN1CCCCC1` [N-methylpiperidine], for which the pKa result in data set [1] is “approximately 10.08”.
In data set [2] (1 h), `CC(C)NCCCC[C@@H]1NC(=O)[C@H](Cc2ccc(O)cc2)NC(=O)[C@H](Cc2ccccc2)NC(=O)CC[C@H](C(=O)N[C@@H](CCCCNC(C)C)C(=O)N[C@@H](CCCCNC(=O)[C@H](CCC(=O)O)NC(=O)[C@H](CCC(=O)O)NC(=O)[C@H](CCC(=O)O)NC(=O)CN2CCN(CC(=O)O)CCN(CC(=O)O)CCN(CC(=O)O)CC2)C(N)=O)NC(=O)CNC(=O)[C@H](Cc2ccc3ccccc3c2)NC(=O)[C@@H](CCCNC(=N)N)NC1=O` [[68Ga]Ga-BL02, metal not drawn] (FY[Lys(iPr)][dR][2Nal]G[dE][Lys(iPr)]K([Glu-Glu-Glu-DOTA])-NH2; lactam N-7 (inferred); C-terminus assumed) gave a Blood uptake of 0.27 ± 0.06 %ID/g, a Liver uptake of 0.57 ± 0.07 %ID/g, a Lung uptake of 0.45 ± 0.08 %ID/g and a Spleen uptake of 0.47 ± 0.22 %ID/g. In data set [2] (2 h), this compound registered a Kidney uptake of 3.40 ± 0.51 %ID/g, a Liver uptake of 0.54 ± 0.04 %ID/g and a Lung uptake of 0.27 ± 0.09 %ID/g. The tissue uptake at 1 h in the data set “in vivo” (Kidney uptake) stood at 3.81 ± 0.86 %ID/g.
For the compound `CC(C)NCCCC[C@@H]1NC(=O)[C@H](Cc2ccc(O)cc2)NC(=O)[C@H](Cc2ccccc2)NC(=O)CC[C@H](C(=O)N[C@@H](CCCCNC(C)C)C(=O)N[C@@H](CCCCNC(=O)[C@@H](CCC(=O)O)NC(=O)[C@@H](CCC(=O)O)NC(=O)[C@@H](CCC(=O)O)NC(=O)CN2CCN(CC(=O)O)CCN(CC(=O)O)CCN(CC(=O)O)CC2)C(N)=O)NC(=O)CNC(=O)[C@H](Cc2ccc3ccccc3c2)NC(=O)[C@@H](CCCNC(=N)N)NC1=O` [[68Ga]Ga-BL20, metal not drawn] (FY[Lys(iPr)][dR][2Nal]G[dE][Lys(iPr)]K([dE-dE-dE-DOTA])-NH2; lactam N-7), the tissue uptake at 1 h in “in vivo” (Tumor uptake (Daudi xenograft)) stood at 0.59 %ID/g.
With `N[C@@H](CC(=O)O)C(=O)O` [aspartate], the pKa in data set [1] was roughly 1.9.
LY2510924: the “decrease in affinity to mCXCR4 as compared to hCXCR4” value in the data set on mCXCR4 is greater than 1000 fold.
